Patent publication US20070004791A1, “3,6-disubstituted azabicyclo {3.1.0} hexane derivatives useful as muscarnic receptor antagonists” (priority 2002, published 2007)
Where a name gives a salt, the structure may show the parent alone.

Tests used:
[1] = target: T1, M3 muscarinic receptor (Rattus norvegicus, UniProt P08483); assay: biochemical; details: Receptor Binding Assay M3 pKi
[2] = target: T2, M2 muscarinic receptor (Rattus norvegicus, UniProt P10980); assay: biochemical; type: binding; details: for Ki: Receptor Binding Assay M2 pKi
T2 construct: Submandibular glands and heart were isolated and placed in ice cold homogenising buffer; from tissue; host or cells: rat heart membrane homogenate
T2 sequence (P10980 1-466): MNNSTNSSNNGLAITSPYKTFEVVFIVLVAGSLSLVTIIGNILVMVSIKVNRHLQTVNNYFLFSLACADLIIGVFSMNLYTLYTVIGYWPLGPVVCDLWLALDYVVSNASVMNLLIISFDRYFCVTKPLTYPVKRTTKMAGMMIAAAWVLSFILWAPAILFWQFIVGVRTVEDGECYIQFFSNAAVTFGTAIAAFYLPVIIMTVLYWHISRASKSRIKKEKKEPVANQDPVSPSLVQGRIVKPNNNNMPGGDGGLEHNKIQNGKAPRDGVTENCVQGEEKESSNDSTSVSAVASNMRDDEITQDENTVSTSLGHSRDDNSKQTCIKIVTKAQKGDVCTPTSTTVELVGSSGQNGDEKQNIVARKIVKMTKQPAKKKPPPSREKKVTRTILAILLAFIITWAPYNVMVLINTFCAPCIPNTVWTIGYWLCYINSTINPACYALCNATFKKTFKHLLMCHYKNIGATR

[3] = target: T1, M3 muscarinic receptor

T1 sequence (P08483 whole entry): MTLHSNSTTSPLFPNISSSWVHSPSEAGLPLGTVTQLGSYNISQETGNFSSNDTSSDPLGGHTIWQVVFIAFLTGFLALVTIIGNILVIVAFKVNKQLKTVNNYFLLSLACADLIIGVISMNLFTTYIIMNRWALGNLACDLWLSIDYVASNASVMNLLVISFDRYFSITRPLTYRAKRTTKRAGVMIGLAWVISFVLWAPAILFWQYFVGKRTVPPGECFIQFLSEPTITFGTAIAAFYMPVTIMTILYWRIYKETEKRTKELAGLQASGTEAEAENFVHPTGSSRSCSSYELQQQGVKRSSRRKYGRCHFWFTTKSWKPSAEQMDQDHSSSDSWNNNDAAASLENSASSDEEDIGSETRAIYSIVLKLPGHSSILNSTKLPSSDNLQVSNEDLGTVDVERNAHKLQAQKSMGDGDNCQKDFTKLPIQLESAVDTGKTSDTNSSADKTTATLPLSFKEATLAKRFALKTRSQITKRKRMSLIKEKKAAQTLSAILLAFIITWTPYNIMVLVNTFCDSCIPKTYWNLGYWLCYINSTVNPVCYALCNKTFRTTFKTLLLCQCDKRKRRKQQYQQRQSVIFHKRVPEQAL

Compound	Ki [1] [µM]	Ki [2] [µM]	Receptor Binding Assay M3 pKi [3]	Receptor Binding Assay Selectivity M2/M3 [3]	Receptor Binding Assay M2 pKi [2]
O=C(NC[C@@H]1[C@H]2CN(Cc3ccccc3)C[C@@H]12)C(O)(c1ccccc1)C1CCCC1 (stereo partly drawn) [Compound No. 62, (1α,5α,6α)-N-[3-benzyl-3-azabicyclo[3.1.0]-hexyl-6-(aminomethyl)-yl]-2-hydroxy-2-cyclopentyl-2-phenyl acetamide. Maleate salt]	0.00676	0.0525			
O=C(NCC1C2CN(Cc3ccccc3)CC12)C(O)(c1ccccc1)C1CCCC1 (stereo not drawn) [Compound No. 60, (1α,5α,6α)-N-[3-benzyl-3-azabicyclo[3.1.0]-hexyl-6-(aminomethyl)-yl]-2-hydroxy-2-cyclopentyl-2-phenyl acetamide hydrochloride salt]	0.00525	0.049			
O=C(NC[C@@H]1[C@H]2CN(Cc3ccncc3)C[C@@H]12)C(O)(c1ccccc1)c1ccccc1 [Compound No. 50, (1α,5α,6α)-N-[3-(4-pyridylmethyl)-3-azabicyclo[3.1.0]hexyl-6-(aminomethyl)-yl]-2-hydroxy-2,2-diphenyl acetamide]	0.115	> 1			
(1α,5α,6α)-N-[3-(2-(3,4-methylenedioxyphenyl)ethyl)-3-azabicyclo[3.1.0]hexyl-6-(aminomethyl)-yl]-2-hydroxy-2-cyclopentyl-2-phenyl acetamide [Compound No. 13]			7.28	6.3	6.48
O=C(NCC1C2CN(Cc3ccccc3)CC12)C(O)(c1ccccc1)C1CCCC1 (stereo not drawn) [Compound No. 61, (1α,5α,6α)-N-[3-benzyl-3-azabicyclo[3.1.0]-hexyl-6-(aminomethyl)-yl]-2-hydroxy-2-cyclopentyl-2-phenyl acetamide. L(−) malic acid salt]	0.00513	0.0437			
O=C(NC[C@@H]1[C@H]2CN(Cc3ccncc3)C[C@@H]12)C(O)(c1ccccc1)C1CCCC1 (stereo partly drawn) [Compound No. 48, (1α,5α,6α)-N-[3-(4-pyridylmethyl)-3-azabicyclo[3.1.0]hexyl-6-(aminomethyl)-yl]-2-hydroxy-2-cyclopentyl-2-phenylacetamide]	0.0724	> 1			
(1α,5α,6α)-N-[3-(2-pyridylmethyl)-3-azabicyclo[3.1.0]hexyl-6-(aminomethyl)-yl]-2-hydroxy-2-cyclopentyl-2-phenylacetamide [Compound No. 47]			7.42		6.15
O=C(NCC1C2CN(Cc3ccncc3)CC12)C(O)(c1ccccc1)C1CCCCC1 (stereo not drawn) [Compound No. 46, (1α,5α,6α)-N-[3-(4pyridylmethyl)-3-azabicyclo[3.1.0]hexyl-6-(aminomethyl)-yl]-2-hydroxy-2-cyclohexyl-2-phenylacetamide]	0.0676	> 1			
O=C(NC[C@@H]1[C@H]2CN(Cc3cccnc3)C[C@@H]12)C(O)(c1ccccc1)c1ccccc1 [Compound No. 49, (1α,5α,6α)-N-[3-(3-pyridylmethyl)-3-azabicyclo[3.1.0]hexyl-6-(aminomethyl)-yl]-2-hydroxy-2,2-diphenylacetamide]	0.0692	> 1			
(1α,5α,6α)-N-[3-(2-(3,4-methylenedioxyphenyl)ethyl)-3-azabicyclo[3.1.0]hexyl-6-(aminomethyl)-yl]-2-hydroxy-2-cyclohexyl-2-phenyl acetamide [Compound No. 14]			6.72	10.5	5.7
O=C(NC[C@@H]1[C@H]2CN(Cc3cccnc3)C[C@@H]12)C(O)(c1ccccc1)C1CCCCC1 (stereo partly drawn) [Compound No. 45, (1α,5α,6α)-N-[3-(3-pyridylmethyl)-3-azabicyclo[3.1.0]hexyl-6-(aminomethyl)-yl]-2-hydroxy-2-cyclohexyl-2-phenyl acetamide]	0.234	> 1			
